Measurements: PMC2887388 (Journal of natural products, 2009)

Tests used:
[1] = tested on: HT-29 human colon cancer cell line; test: Cytotoxicity assay against HT-29 human colon cancer cell line; type: cell-based; details: HT-29, read-out: cytotoxicity ED50
HT-29 cells = test: In vivo hollow fiber assay, HT-29 cells; parameters: species or system human; details: cells implanted at i.p. site; doses 2.5, 5, 10, 20 mg/kg
[2] = tested on: LNCaP (hormone-dependent human prostate cancer) cells; test: In vivo hollow fiber assay, LNCaP cells; details: cells implanted at i.p. site; doses 2.5, 5, 10, 20 mg/kg

Compound	IC50 [1] [µM]	activity in hollow fiber assay (HT-29) (HT-29 cells)	activity in hollow fiber assay (LNCaP) [2]
COc1c(O)cc2oc3cc4c(c(O)c3c(=O)c2c1CC=C(C)C)[C@@H](c1c(O)c(CC=C(C)C)c(O)c2c(=O)c3c(CC=C(C)C)c(OC)c(O)cc3oc12)[C@H](C(C)(C)O)O4 [Compound 11, cratoxyxanthone]	> 10	–	–
COc1c(O)cc2oc3cc(O)c(CC=C(C)C)c(O)c3c(=O)c2c1CC=C(C)C [Compound 5, α-mangostin]	–	inactive	inactive
COc1c(O)cc2oc3cc(O)c4c(c3c(=O)c2c1CC=C(C)C)OC(C)(C)C(O)C4 (centres unmarked) [Compound 2, 11-hydroxy-1-isomangostin]	> 10	–	–
COc1cc2oc3cc(O)c(OC)c(CC=C(C)C)c3c(=O)c2c2c1CC(O)C(C)(C)O2 (centres unmarked) [Compound 1, 11-hydroxy-3-O-methyl-1-isomangostin]	> 10	–	–
